In ChEMBL document CHEMBL1201862, “PubChem BioAssay data set” (2004):
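Briefly, cells in 96-well plates were exposed to five compound concentrations for 48 h, and endpoints were estimated by linear interpolation. The concentration for 50% growth inhibition is given as GI50.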 Activity calls are given as the source filed them. Cut-off read from the data, not from the text of the source: active = GI50 up to about 1.1 µM and inactive = higher.

Legend:
Test in all cases: growth of human tumour cells (NCI), 48 h
DMS-114 = system: DMS-114
M19-MEL = system: M19-MEL
LXFL 529 = system: LXFL 529
DMS-273 = system: DMS-273
HOP-18 = system: HOP-18
SNB-78 = system: SNB-78
XF498 = system: XF498
RXF 631 = system: RXF 631
BT-549 = system: BT-549

Measured: GI50

C[N+](C)(C)CC(=O)N/N=C(/C=C/c1ccccc1)CC1OC(=O)c2ccccc21 (configuration not stated)
inactive: DMS-114 > 100 µM | M19-MEL > 100 µM | LXFL 529 > 100 µM | DMS-273 > 100 µM | HOP-18 > 100 µM | SNB-78 > 100 µM | XF498 > 100 µM

O=c1[nH]cc(F)c(=O)n1C1OC(CO)C(O)C1O (configuration not stated)
inactive: DMS-114 > 100 µM | LXFL 529 > 100 µM | DMS-273 > 100 µM | HOP-18 > 100 µM | SNB-78 > 100 µM | XF498 > 100 µM

CCOc1ccc2c(c1)[n+]([O-])c(C(N)=O)c(N)[n+]2[O-]
inactive: DMS-114 > 100 µM | M19-MEL > 100 µM | LXFL 529 > 100 µM | DMS-273 > 100 µM | HOP-18 > 100 µM | SNB-78 > 100 µM | XF498 > 100 µM

O=C(O)/C(Cl)=C(\Cl)Nc1cccc(C(F)(F)F)c1
inactive: DMS-114 > 100 µM | M19-MEL > 100 µM | LXFL 529 > 100 µM | DMS-273 > 100 µM | HOP-18 > 100 µM | SNB-78 > 100 µM | XF498 > 100 µM

COC(=O)C(C(=O)C(=O)Nc1ccc(C(F)(F)F)cc1[N+](=O)[O-])c1csc(-n2nc(-c3ccccc3)cc2-c2ccccc2)n1 (configuration not stated)
inactive: DMS-114 > 100 µM | M19-MEL > 100 µM | LXFL 529 > 100 µM | DMS-273 > 100 µM | SNB-78 > 100 µM

Cc1cc2c(C(C)C)c(O)c(O)c(/C=N\CCO)c2c(O)c1-c1c(C)cc2c(C(C)C)c(O)c(O)c(/C=N/CCO)c2c1O
inactive: RXF 631 2.33 µM | DMS-114 1.23 µM | M19-MEL 1.86 µM | LXFL 529 1.64 µM | DMS-273 1.62 µM | HOP-18 1.91 µM | SNB-78 3.24 µM | XF498 2.87 µM

CCCC(S(=O)(=O)c1ccccc1)S(=O)(=O)c1ccccc1
inactive: RXF 631 > 100 µM | DMS-114 > 100 µM | M19-MEL > 100 µM | LXFL 529 > 100 µM | DMS-273 > 100 µM | SNB-78 > 100 µM | XF498 > 100 µM

O=[N+]([O-])c1cccc(S(=O)(=O)N/N=C/c2cc(I)cc([N+](=O)[O-])c2O)c1
inactive: DMS-114 21.6 µM | M19-MEL 34.8 µM | LXFL 529 21.5 µM | DMS-273 25.6 µM | HOP-18 29.6 µM | SNB-78 22 µM

C[C@@H]1OC(=O)N2CCCC(=C3SCCCS3)C12 (some centres not stated)
inactive: DMS-114 25.1 µM | M19-MEL 45.6 µM | LXFL 529 44.8 µM | DMS-273 97.7 µM | HOP-18 52.5 µM | SNB-78 > 100 µM | XF498 36.6 µM

O=[N+]([O-])c1ccc(C2CC(c3ccccc3Cl)=Nc3ccccc3[S+]2[O-])cc1 (configuration not stated)
inactive: RXF 631 5.27 µM | DMS-114 2.05 µM | M19-MEL 2.77 µM | LXFL 529 1.79 µM | BT-549 13.7 µM | DMS-273 2.95 µM | HOP-18 14.1 µM | SNB-78 13.1 µM | XF498 5.89 µM

COC(=O)CCC(=O)CC(=O)C(=O)Nc1c(Cl)cc([N+](=O)[O-])cc1Cl
inactive: RXF 631 > 100 µM | DMS-114 23.5 µM | M19-MEL > 100 µM | LXFL 529 > 100 µM | DMS-273 > 100 µM | HOP-18 > 100 µM | SNB-78 > 100 µM | XF498 > 100 µM

Nc1nc2c(ncn2CCCC(c2ccccc2)P(=O)(O)O)c(=O)[nH]1 (configuration not stated)
inactive: DMS-114 > 100 µM | M19-MEL > 100 µM | LXFL 529 > 100 µM | DMS-273 > 100 µM | HOP-18 62.4 µM | SNB-78 > 100 µM

O=C1C(N2C(=O)c3ccccc3C2=O)CN1C(COCc1ccccc1)c1ccc(OCc2ccccc2)cc1 (configuration not stated)
inactive: DMS-114 > 100 µM | M19-MEL > 100 µM | LXFL 529 > 100 µM | DMS-273 > 100 µM | SNB-78 > 100 µM | XF498 > 100 µM

COc1c(OC2OC(CO)C(O)C(O)C2O)cc2c(c1OC)-c1ccc(OC)c(=O)cc1[C@@H](NC(C)=O)CC2 (some centres not stated)
inactive: RXF 631 > 100 µM | DMS-114 44.7 µM | M19-MEL 60.1 µM | LXFL 529 54.1 µM | DMS-273 > 100 µM | HOP-18 > 100 µM | SNB-78 61 µM | XF498 29.3 µM
